# In publication PMC5535840 (International Journal of Molecular Sciences, 2017):
# Read-outs that look alike come from different tables or passages of the source.
# Assays:
# [1] = target: T1, hMT1; MT1 melatonin receptor (Homo sapiens, UniProt P48039); assay: […]-GTPγS binding, CHO-K1 membranes; assay type: biochemical; conditions: read-out: MT1 / pEC50 (converted)
# T1 construct: gene MTNR1A
# [2] = target: T2, hMT2; MT2 melatonin receptor (Homo sapiens, UniProt P49286); assay: […]-GTPγS binding, CHO-K1 membranes; assay type: biochemical
# T2 construct: gene MTNR1B
# T2 sequence (P49286 1-362): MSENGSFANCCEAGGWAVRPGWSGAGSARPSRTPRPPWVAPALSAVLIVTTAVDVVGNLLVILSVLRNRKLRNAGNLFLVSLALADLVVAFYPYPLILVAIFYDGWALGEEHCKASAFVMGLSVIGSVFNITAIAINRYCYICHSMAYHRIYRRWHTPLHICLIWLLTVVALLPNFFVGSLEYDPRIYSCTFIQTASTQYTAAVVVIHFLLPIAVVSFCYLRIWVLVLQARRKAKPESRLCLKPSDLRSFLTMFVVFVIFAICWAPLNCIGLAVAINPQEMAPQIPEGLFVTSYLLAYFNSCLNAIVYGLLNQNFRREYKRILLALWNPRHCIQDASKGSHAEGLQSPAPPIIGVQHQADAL
# [3] = target: T2, hMT2; MT2 melatonin receptor; assay: […]-[…]-iodomelatonin displacement, CHO-K1 membranes; assay type: binding
# [4] = target: T1, hMT1; MT1 melatonin receptor; assay: as above; assay type: binding
# [5] = read-out: MT2 / pEC50 (converted)
# [6] = radioligand […]-[…]-iodomelatonin
# T1 sequence (P48039 whole entry): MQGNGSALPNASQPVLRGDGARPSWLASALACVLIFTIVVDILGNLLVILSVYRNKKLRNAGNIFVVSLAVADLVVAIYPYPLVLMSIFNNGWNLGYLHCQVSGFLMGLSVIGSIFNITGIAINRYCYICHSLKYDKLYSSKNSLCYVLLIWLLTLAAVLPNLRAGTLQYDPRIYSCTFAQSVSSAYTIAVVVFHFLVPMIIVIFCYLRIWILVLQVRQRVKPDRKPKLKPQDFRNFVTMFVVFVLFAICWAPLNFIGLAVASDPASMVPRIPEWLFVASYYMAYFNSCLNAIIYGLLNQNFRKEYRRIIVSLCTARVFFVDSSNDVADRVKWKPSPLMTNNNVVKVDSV
EC50 [1],"EC50 [2, 5]","Ki [3, 6]","Ki [4, 6]",EC50 ([2]; read-out: MT1 / pEC50 (converted)),Ki [3],Ki [4],Compound
> 10000 nM,2.04 nM,1.4 ± 0.1 nM,1300 ± 97 nM,,,,COc1ccc(Cc2cc(OC)c(OC)cc2CC(=O)OC(C)(C)C)cc1OC [DIV4288]
> 10000 nM,,0.49 ± 0.01 nM,44 ± 7 nM,> 10000 nM,,,COc1cc(CC(=O)OC(C)(C)C)c(Cc2cc(OC)c(OC)cc2-c2ccccc2)cc1OC [DIV6519]

# Further lines, the molecule ahead of its results:
Compound,EC50 [1],"EC50 [2, 5]","Ki [3, 6]","Ki [4, 6]",EC50 ([2]; read-out: MT1 / pEC50 (converted)),Ki [3],Ki [4]
COc1cc(F)c(Cc2cc(OC)c(OC)cc2CC(=O)OC(C)(C)C)cc1OC [DIV6518],> 10000 nM,1.17 nM,1.4 ± 0.3 nM,630 ± 55 nM,,,
COc1cc(I)c(Cc2cc(OC)c(OC)cc2CC(=O)OC(C)(C)C)cc1OC [DIV0880],> 10000 nM,0.331 nM,,,,1 ± 0.1 nM,1200 ± 143 nM
COc1cc(Br)c(Cc2cc(OC)c(OC)cc2CC(=O)OC(C)(C)C)cc1OC [DIV0879],> 10000 nM,1.38 nM,1.4 ± 0.1 nM,,,,1780 ± 118 nM
